Target: T1, Tyrosine-protein kinase JAK3 (Homo sapiens, UniProt P52333)
T1 sequence (P52333 whole entry): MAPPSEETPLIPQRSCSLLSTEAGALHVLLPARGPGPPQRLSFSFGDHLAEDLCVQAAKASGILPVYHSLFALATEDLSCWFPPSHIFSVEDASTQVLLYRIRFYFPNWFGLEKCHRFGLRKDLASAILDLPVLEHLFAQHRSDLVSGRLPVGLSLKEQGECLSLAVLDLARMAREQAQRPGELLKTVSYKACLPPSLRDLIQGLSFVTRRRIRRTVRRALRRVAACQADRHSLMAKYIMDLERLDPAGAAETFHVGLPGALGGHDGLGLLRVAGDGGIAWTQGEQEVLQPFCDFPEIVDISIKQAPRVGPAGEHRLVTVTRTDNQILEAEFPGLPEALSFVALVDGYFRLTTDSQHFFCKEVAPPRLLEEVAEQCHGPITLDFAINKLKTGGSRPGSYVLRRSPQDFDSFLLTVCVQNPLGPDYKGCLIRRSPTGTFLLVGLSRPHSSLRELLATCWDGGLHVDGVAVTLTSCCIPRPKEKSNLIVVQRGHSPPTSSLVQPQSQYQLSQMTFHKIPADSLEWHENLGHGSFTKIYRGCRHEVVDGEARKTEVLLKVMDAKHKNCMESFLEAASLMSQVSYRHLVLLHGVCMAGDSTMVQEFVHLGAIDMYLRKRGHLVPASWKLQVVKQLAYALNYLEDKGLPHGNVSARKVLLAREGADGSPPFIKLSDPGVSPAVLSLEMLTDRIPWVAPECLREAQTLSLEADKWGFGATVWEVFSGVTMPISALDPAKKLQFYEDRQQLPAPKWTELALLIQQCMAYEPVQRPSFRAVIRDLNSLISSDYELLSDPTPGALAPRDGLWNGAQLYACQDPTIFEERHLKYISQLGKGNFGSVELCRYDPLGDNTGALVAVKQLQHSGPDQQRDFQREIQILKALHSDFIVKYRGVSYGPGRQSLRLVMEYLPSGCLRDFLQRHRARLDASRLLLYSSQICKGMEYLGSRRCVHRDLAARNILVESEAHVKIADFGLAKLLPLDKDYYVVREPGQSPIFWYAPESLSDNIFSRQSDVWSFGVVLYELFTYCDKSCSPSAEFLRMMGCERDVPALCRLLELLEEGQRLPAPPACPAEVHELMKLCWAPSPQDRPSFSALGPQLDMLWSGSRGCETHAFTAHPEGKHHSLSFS
Test: JAK3 Inhibition Assay
Conditions: pH 7.5; 22 °C
Protocol: An ELISA assay was used to determine the ability of inhibitor to inhibit JAK3 […] activity. The compounds were incubated with enzyme, 10 uM ATP, and biotinylated peptide substrate. Phosphorylated tyrosine was then detected by sequential incubation with anti-phosphotyrosine antibody.

IC50: 957 nM
Compound: O=C1c2ccccc2-c2n[nH]c3cccc1c23

Reference: BindingDB's records for doi:10.1021/jm800662z (Johnson & Johnson Pharmaceutical, 2008)
